# According to patent US5681829A, “Class of phosphocholine derivatives having antifungal activity” (Shaman Pharmaceuticals, Inc., priority 1995, dated 1997):
# Where two headings read alike, the source gives them in different places.
# What was measured:
# Format in all cases: cell-based
# [1] = tested on: T. rubrum; assay: antifungal screening test of analogs, T. rubrum (TR); details: for IC (25-75%): read-out: Partial inhibition
# Experimental: (§1) The analog compounds were tested for their activity against C. albicans, C. neoformans, A. fumigatus and T. rubrum. Partial inhibition of the fungus of between 25 to 75% was measured along with the total inhibition (MIC) by these anolog compounds. A description of the partial inhibition measurement can be found in R. L. Stiller, et al The Journal of Infectious Diseases, 147, No. 6 (1983). The structure of these analog compounds is as follows. [drawing 15] wherein R is the group identified in table 2.
# [2] = tested on: A. fumigatus; assay: antifungal screening test of analogs, A. fumigatus (AF); details: for IC (25-75%): read-out: Partial inhibition
# Experimental: as §1
# [3] = tested on: C. neoformans; assay: antifungal screening test of analogs, C. neoformans (CN); details: for IC (25-75%): read-out: Partial inhibition
# Experimental: as §1
# [4] = tested on: C. albicans; assay: antifungal screening test of analogs, C. albicans (CA); details: for IC (25-75%): read-out: Partial inhibition
# Experimental: as §1
# [5] = tested on: fungi; assay: antifungal activity stated in words
Compound,MIC ([1]; Trichophyton rubrum),IC (25-75%) ([1]; Trichophyton rubrum),MIC ([2]; Aspergillus fumigatus),IC (25-75%) ([2]; Aspergillus fumigatus),MIC ([3]; Cryptococcus neoformans),IC (25-75%) ([3]; Cryptococcus neoformans),MIC ([4]; Candida albicans),also measured
CCCCCCCCCC(=O)OC[C@@H](O)COP(=O)([O-])OCC[N+](C)(C)C [L-a-Lysophosphatidylcholine Decanoyl (C:10)],> 500 µg/mL,> 500 µg/mL,> 500 µg/mL,> 500 µg/mL,500 µg/mL,250 µg/mL,> 500 µg/mL,IC (25-75%) ([4]; Candida albicans): 250 µg/mL
CCCCCCCCCCCCCCCC(=O)O[C@H](COC1O[C@H](CO)[C@@H](O)[C@H](O)[C@H]1O)COP(=O)([O-])OCC[N+](C)(C)C (some centres unmarked) [2-palmitoyl-1-O-glucopyranosyllysolecithin],,,,,,,,antifungal activity [5]: relatively active antifungal agent similar in activity to L-a-Lysophosphatidyl inositol
CCCCCCCCCCCCCCCC(=O)OC[C@@H](O)COP(=O)([O-])OCC[N+](C)(C)C [L-a-Lysophosphatidylcholine Palmitoyl (C16:0)],500 µg/mL,63 µg/mL,63 µg/mL,31 µg/mL,31 µg/mL,,31 µg/mL,
"CCCCCCCC/C=C\CCCCCCCC(=O)OC[C@@H](O)COP(=O)([O-])OCC[N+](C)(C)C [L-a-Lysophosphatidylcholine Oleoyl (C18:1,[Cis]-9)]",31 µg/mL,,63 µg/mL,31 µg/mL,31 µg/mL,,31 µg/mL,
CCCCCCCCCCCC(=O)OC[C@@H](O)COP(=O)([O-])OCC[N+](C)(C)C [L-a-Lysophosphatidylcholine Lauroyl (C12:0)],250 µg/mL,63 µg/mL,125 µg/mL,,125 µg/mL,31 µg/mL,500 µg/mL,
L-a-Lysophosphatidyl inositol,,,,,,,,"Partial inhibition ([1]; TR, partial inhibition of between 25 to 75%): > 100 µg/mL; MIC ([1]; TR, total inhibition): > 100 µg/mL; MIC ([2]; AF, total inhibition): 100 µg/mL; Partial inhibition ([3]; CN, partial inhibition of between 25 to 75%): 100 µg/mL; MIC ([3]; CN, total inhibition): > 100 µg/mL; Partial inhibition ([4]; CA, partial inhibition of between 25 to 75%): > 100 µg/mL; MIC ([4]; CA, total inhibition): > 100 µg/mL"
CCCCCCCCCCCCCCCCCC(=O)OC[C@@H](O)COP(=O)([O-])OCC[N+](C)(C)C [L-a-Lysophosphatidylcholine Stearoyl (C18:0)],> 250 µg/mL,> 250 µg/mL,> 250 µg/mL,> 250 µg/mL,> 250 µg/mL,31 µg/mL,> 250 µg/mL,IC (25-75%) ([4]; Candida albicans): > 250 µg/mL
CCCCCCCCCCCCCC(=O)OC[C@@H](O)COP(=O)([O-])OCC[N+](C)(C)C [L-a-Lysophosphatidylcholine Myristoyl (C14:0)],31 µg/mL,,125 µg/mL,31 µg/mL,31 µg/mL,,31 µg/mL,
CCCCCCCCCCCCCCCCC(=O)OC[C@@H](O)COP(=O)([O-])OCC[N+](C)(C)C [L-a-Lysophosphatidylcholine Heptadecanoyl (C17:0)],,,,,,,,"IC (25-75%) ([1]; Trichophyton rubrum, TR, partial inhibition of between 25 to 75%): 31 µg/mL; MIC ([1]; Trichophyton rubrum, TR, total inhibition, read-out: MIC): 63 µg/mL; IC (25-75%) ([2]; Aspergillus fumigatus, AF, partial inhibition of between 25 to 75%): 31 µg/mL; MIC ([2]; Aspergillus fumigatus, AF, total inhibition, read-out: MIC): > 1000 µg/mL; MIC ([3]; Cryptococcus neoformans, CN, total inhibition, read-out: MIC): 16 µg/mL; IC (25-75%) ([4]; Candida albicans, CA, partial inhibition of between 25 to 75%): 16 µg/mL; MIC ([4]; Candida albicans, CA, total inhibition, read-out: MIC): 63 µg/mL"
"C[N+](C)(C)CCOP(=O)([O-])OCCCCCCCCCCCCCCCCCCCCCCOP(=O)([O-])OCC[N+](C)(C)C [1,22-docosandiol bisphosphocholine ester]",,,,,,,,antifungal activity [5]: one of the most active antifungal compounds
"CCCCCCCC/C=C\CCCCCCCC(=O)OC[C@@H](O)COP(=O)(O)OCCN [L-a-Lysophosphatidylethanol Amine, Oleoyl (C18:1,[cis]-9)]",> 100 µg/mL,> 100 µg/mL,> 100 µg/mL,> 100 µg/mL,> 100 µg/mL,100 µg/mL,> 100 µg/mL,IC (25-75%) ([4]; Candida albicans): > 100 µg/mL
